Source: ChEMBL document CHEMBL3885881, “DrugMatrix”

Species on record: Rattus norvegicus
Test: DrugMatrix - Regimen: Daily Repeat
Assay type: toxicity, organism-based, Sprague-Dawley
Set-up: regimen Daily Repeat, gender Male, age 6-8 weeks
Settings: in vivo, po, route oral GAVAGE, […]; for ABSOLUTE BASOPHIL / ABSOLUTE EOSINOPHIL / ABSOLUTE LYMPHOCYTE / ABSOLUTE MONOCYTE / ABSOLUTE SEGMENTED NEUTROPHIL / BASOPHIL / EOSINOPHIL / ERYTHROCYTE COUNT / HEMATOCRIT / HEMOGLOBIN / LEUKOCYTE COUNT / LYMPHOCYTE / MEAN CORPUSCULAR HEMOGLOBIN / MEAN CORPUSCULAR HEMOGLOBIN CONCENTRATION / MEAN CORPUSCULAR VOLUME / MONOCYTE / NEUTROPHIL / NUCLEATED RED BLOOD CELLS / PLATELET COUNT: tissue Blood; for ALANINE AMINOTRANSFERASE / ALBUMIN / ALKALINE PHOSPHATASE / ASPARTATE AMINOTRANSFERASE / BLOOD UREA NITROGEN / CARBON DIOXIDE / CHLORIDE / CHOLESTEROL / CREATINE PHOSPHOKINASE / CREATININE / GLUCOSE / LACTATE DEHYDROGENASE / LIPASE / PHOSPHORUS / POTASSIUM / SODIUM / TOTAL BILIRUBIN / TOTAL PROTEIN / URIC ACID: tissue Plasma
[1] = 0 mg/kg, 72 h, dose level Control, time 3 day
[2] = 0 mg/kg, 120 h, dose level Control, time 5 day
[3] = 59 mg/kg, 72 h, dose level Low, time 3 day
[4] = 59 mg/kg, 120 h, dose level Low, time 5 day

Oc1c(Cl)cc(Cl)cc1Sc1cc(Cl)cc(Cl)c1O [BITHIONOL]
ABSOLUTE BASOPHIL [1]: 0 CELLS/uL
ABSOLUTE EOSINOPHIL [1]: 33 CELLS/uL
ABSOLUTE LYMPHOCYTE [1]: 9048.5 CELLS/uL
ABSOLUTE MONOCYTE [1]: 80.17 CELLS/uL
ABSOLUTE SEGMENTED NEUTROPHIL [1]: 1521.67 CELLS/uL
BASOPHIL [1]: 0%
EOSINOPHIL [1]: 0.17%
ERYTHROCYTE COUNT [1]: 5.46 x10E6/uL
HEMATOCRIT [1]: 32.87%
HEMOGLOBIN [1]: 12.95 G/DL
LEUKOCYTE COUNT [1]: 10.68 x10E3/uL
LYMPHOCYTE [1]: 86.67%
MEAN CORPUSCULAR HEMOGLOBIN [1]: 23.72 pg
MEAN CORPUSCULAR HEMOGLOBIN CONCENTRATION [1]: 39.4 G/DL
MEAN CORPUSCULAR VOLUME [1]: 60.18 fL
MONOCYTE [1]: 0.83%
NEUTROPHIL [1]: 12.33%
NUCLEATED RED BLOOD CELLS [1]: 0 /100WBC
PLATELET COUNT [1]: 1211.33 x10E3/uL
ALANINE AMINOTRANSFERASE [1]: 76.67 u/L
ALBUMIN [1]: 3.93 G/DL
ALKALINE PHOSPHATASE [1]: 317.17 u/L
ASPARTATE AMINOTRANSFERASE [1]: 81.17 u/L
BLOOD UREA NITROGEN [1]: 12.33 mg/dL
CARBON DIOXIDE [1]: 31.17 mmol/L
CHLORIDE [1]: 98.33 MEQ/L
CHOLESTEROL [1]: 67.17 mg/dL
CREATINE PHOSPHOKINASE [1]: 312.33 u/L
CREATININE [1]: 0.19 mg/dL
GLUCOSE [1]: 165.5 mg/dL
LACTATE DEHYDROGENASE [1]: 94.5 u/L
LIPASE [1]: 9.83 u/L
PHOSPHORUS [1]: 10.1 mg/dL
POTASSIUM [1]: 5.16 MEQ/L
SODIUM [1]: 143.02 MEQ/L
TOTAL BILIRUBIN [1]: 0.2 mg/dL
TOTAL PROTEIN [1]: 5.88 G/DL
URIC ACID [1]: 0.68 mg/dL
ABSOLUTE BASOPHIL [2]: 0 CELLS/uL
ABSOLUTE EOSINOPHIL [2]: 14.67 CELLS/uL
ABSOLUTE LYMPHOCYTE [2]: 9629.83 CELLS/uL
ABSOLUTE MONOCYTE [2]: 72.5 CELLS/uL
ABSOLUTE SEGMENTED NEUTROPHIL [2]: 1049.67 CELLS/uL
BASOPHIL [2]: 0%
EOSINOPHIL [2]: 0.17%
ERYTHROCYTE COUNT [2]: 5.36 x10E6/uL
HEMATOCRIT [2]: 33.82%
HEMOGLOBIN [2]: 13.48 G/DL
LEUKOCYTE COUNT [2]: 10.77 x10E3/uL
LYMPHOCYTE [2]: 90.17%
MEAN CORPUSCULAR HEMOGLOBIN [2]: 25.28 pg
MEAN CORPUSCULAR HEMOGLOBIN CONCENTRATION [2]: 39.92 G/DL
MEAN CORPUSCULAR VOLUME [2]: 63.3 fL
MONOCYTE [2]: 0.67%
NEUTROPHIL [2]: 9%
NUCLEATED RED BLOOD CELLS [2]: 0.17 /100WBC
PLATELET COUNT [2]: 1275.33 x10E3/uL
ALANINE AMINOTRANSFERASE [2]: 93.67 u/L
ALBUMIN [2]: 4.17 G/DL
ALKALINE PHOSPHATASE [2]: 402.5 u/L
ASPARTATE AMINOTRANSFERASE [2]: 122.83 u/L
BLOOD UREA NITROGEN [2]: 14.75 mg/dL
CARBON DIOXIDE [2]: 26.4 mmol/L
CHLORIDE [2]: 98.5 MEQ/L
CHOLESTEROL [2]: 57.5 mg/dL
CREATINE PHOSPHOKINASE [2]: 305.17 u/L
CREATININE [2]: 0.21 mg/dL
GLUCOSE [2]: 142 mg/dL
LACTATE DEHYDROGENASE [2]: 83.5 u/L
LIPASE [2]: 85.83 u/L
PHOSPHORUS [2]: 8.18 mg/dL
POTASSIUM [2]: 5.46 MEQ/L
SODIUM [2]: 144 MEQ/L
TOTAL BILIRUBIN [2]: 0.25 mg/dL
TOTAL PROTEIN [2]: 5.63 G/DL
URIC ACID [2]: 0.8 mg/dL
ABSOLUTE BASOPHIL [3]: 0 CELLS/uL
ABSOLUTE EOSINOPHIL [3]: 0 CELLS/uL
ABSOLUTE LYMPHOCYTE [3]: 6654 CELLS/uL
ABSOLUTE MONOCYTE [3]: 41.33 CELLS/uL
ABSOLUTE SEGMENTED NEUTROPHIL [3]: 671.33 CELLS/uL
BASOPHIL [3]: 0%
EOSINOPHIL [3]: 0%
ERYTHROCYTE COUNT [3]: 5.26 x10E6/uL
HEMATOCRIT [3]: 32.77%
HEMOGLOBIN [3]: 12.93 G/DL
LEUKOCYTE COUNT [3]: 7.37 x10E3/uL
LYMPHOCYTE [3]: 90%
MEAN CORPUSCULAR HEMOGLOBIN [3]: 24.57 pg
MEAN CORPUSCULAR HEMOGLOBIN CONCENTRATION [3]: 39.5 G/DL
MEAN CORPUSCULAR VOLUME [3]: 62.3 fL
MONOCYTE [3]: 0.67%
NEUTROPHIL [3]: 9.33%
NUCLEATED RED BLOOD CELLS [3]: 0 /100WBC
PLATELET COUNT [3]: 1231 x10E3/uL
ALANINE AMINOTRANSFERASE [3]: 78.67 u/L
ALBUMIN [3]: 4.07 G/DL
ALKALINE PHOSPHATASE [3]: 362 u/L
ASPARTATE AMINOTRANSFERASE [3]: 89.33 u/L
BLOOD UREA NITROGEN [3]: 13.67 mg/dL
CARBON DIOXIDE [3]: 31.67 mmol/L
CHLORIDE [3]: 98.67 MEQ/L
CHOLESTEROL [3]: 74.33 mg/dL
CREATINE PHOSPHOKINASE [3]: 365.67 u/L
CREATININE [3]: 0.18 mg/dL
GLUCOSE [3]: 157.67 mg/dL
LACTATE DEHYDROGENASE [3]: 123.67 u/L
LIPASE [3]: 10 u/L
PHOSPHORUS [3]: 11.23 mg/dL
POTASSIUM [3]: 6.04 MEQ/L
SODIUM [3]: 142.9 MEQ/L
TOTAL BILIRUBIN [3]: 0.17 mg/dL
TOTAL PROTEIN [3]: 5.97 G/DL
URIC ACID [3]: 0.6 mg/dL
ABSOLUTE BASOPHIL [4]: 0 CELLS/uL
ABSOLUTE EOSINOPHIL [4]: 30 CELLS/uL
ABSOLUTE LYMPHOCYTE [4]: 8041.67 CELLS/uL
ABSOLUTE MONOCYTE [4]: 31.33 CELLS/uL
ABSOLUTE SEGMENTED NEUTROPHIL [4]: 663.67 CELLS/uL
BASOPHIL [4]: 0%
EOSINOPHIL [4]: 0.33%
ERYTHROCYTE COUNT [4]: 5.55 x10E6/uL
HEMATOCRIT [4]: 33.6%
HEMOGLOBIN [4]: 13.2 G/DL
LEUKOCYTE COUNT [4]: 8.77 x10E3/uL
LYMPHOCYTE [4]: 91.67%
MEAN CORPUSCULAR HEMOGLOBIN [4]: 23.8 pg
MEAN CORPUSCULAR HEMOGLOBIN CONCENTRATION [4]: 39.27 G/DL
MEAN CORPUSCULAR VOLUME [4]: 60.53 fL
MONOCYTE [4]: 0.33%
NEUTROPHIL [4]: 7.67%
NUCLEATED RED BLOOD CELLS [4]: 0 /100WBC
PLATELET COUNT [4]: 933.33 x10E3/uL
ALANINE AMINOTRANSFERASE [4]: 82.33 u/L
ALBUMIN [4]: 4.23 G/DL
ALKALINE PHOSPHATASE [4]: 343.33 u/L
ASPARTATE AMINOTRANSFERASE [4]: 99.67 u/L
BLOOD UREA NITROGEN [4]: 14.67 mg/dL
CARBON DIOXIDE [4]: 27.67 mmol/L
CHLORIDE [4]: 102.33 MEQ/L
CHOLESTEROL [4]: 55.67 mg/dL
CREATINE PHOSPHOKINASE [4]: 348 u/L
CREATININE [4]: 0.19 mg/dL
GLUCOSE [4]: 150.67 mg/dL
LACTATE DEHYDROGENASE [4]: 104.67 u/L
LIPASE [4]: 19 u/L
PHOSPHORUS [4]: 9.53 mg/dL
POTASSIUM [4]: 5.41 MEQ/L
SODIUM [4]: 145.97 MEQ/L
TOTAL BILIRUBIN [4]: 0.23 mg/dL
TOTAL PROTEIN [4]: 5.97 G/DL
URIC ACID [4]: 0.9 mg/dL
